The values that follow come from patent publication US20260193293A1, “PEPTIDES CAPABLE OF INHIBITING PROTEIN-PROTEIN INTERACTIONS AT GABAB1A SUBUNIT AND USES THEREOF” (UNIVERSITY OF COPENHAGEN, priority 2022, published 2026).

One data set concerns the target SD1/2. Description: Solution array of crude APPWT variants, six-point FP inhibition curve. Conditions: crude peptides of the solution array. In kind it is binding. The procedure:
Parallel synthesis in 96 format peptide synthesis was done using Intavis multipep RSi instrument. Fmoc-PAL resins was used (10 mg per well). Fmoc-amino acids (Fmoc-AA) were dissolved in dimethylformamide (DMF) containing 0.3 M OxymaPure. Throughout the synthesis Fmoc-AA were preactivated with diisopropylcarbodiimide (DIC) for 2 min before adding to the resin. Three couplings using 100 μL Fmoc-AA and 10 μL DIC (3 M in DMF) pr well were employed with coupling times of 5, 15 and 60 min. Removal of Fmoc was performed by washing twice with 120 μl per well of 25% piperidine in DMF for 2 and 8 min. Washing steps after deprotection with piperidine and after coupling steps included washing with DMF (150 μL per well) five times. After synthesis the resins were dried with ethanol and trifluoroacetic acid (TFA) was added using 92% TFA containing 4% triisopropylsilane (TIPS), 1% thioanisol, and 3% H2O for 2 hours. This was done by adding 100 μL per well of the TFA cleavage cocktail over a period of 30 min adding up to a total volume of 1 mL to each well. TFA was then reduced in volume to approximately 100-150 μL by N2 flow and peptides were precipitated by the addition 800 μL of diethylether to each well. The peptides were transferred to Waters solvinert plates and washed thoroughly five times with diethylether 500 μL per well. After washing, the peptides were dried and then dissolved in 80% DMSO. Characterization was performed by UPLC-MS on a setup consisting of a Waters Acquity UPLC system connected to an LCT Premier XE mass spectrometer from Micromass using solvent A 0.1% TFA in H2O and solvent B 0.1% TFA in CH3CN.
We synthesized additional positional scanning array (termed solution array) of APPWT using the conventional on-resin SPPS strategy in 96-well plates. This solution array contained 268 peptides (including two wild type peptides). […] Taking advantage of the high purity of this peptide array, we generated six-point FP inhibition curve of each peptide and the obtained dose response curves enabled us to calculate the binding affinity (Ki) of each peptide variant (data not shown).

Data set [1] deals with Sushi domains (SD1/2) protein. Description: Fluorescence polarization (FP) competition assay with AJAP-1probe, calculated Ki. In kind it is binding. The essentials:
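Ki values were derived from IC50s (sigmoidal fits, ≥ triplicate), with probe Kd obtained by saturation titration of SD1/2. Peptides displaced a 25 nM TAMRA-labelled probe; polarization read at 530/580 nm in 1% BSA-containing PBS, pH 7.4, room temperature.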

Data set [2] is described as follows: In vitro plasma stability. Conditions: for half-life / remaining at 48 h, 100 µM: human; for half-life: plasma; for remaining at 48 h, 100 µM / T1/2: human plasma; for T1/2: 37° C.
Method: For time-course assay, 360 μL human plasma was pre-warmed up at 37° C. for 15 min and then spiked with 40 μL of tested peptides (1 mM in 1×PBS). […] Subsequently, 100 μL acetonitrile was added into and then samples were incubated overnight at −20° C. After that, all samples were centrifuged at 13,400 rpm for 10 min and the supernatant was filtered and then analyzed by LC-MS and UPLC (Waters). The area under the curve (AUC) was determined and normalized to the value of the first time point. The half-life (T1/2) was obtained by fitting the data to the one-phase decay equation in GraphPad Prism 9 and expressed as the mean of three individual experiments. For end-point assay, 108 μL human plasma was pre-warmed up at 37° C. for 15 min and then spiked with 12 μL of tested peptides (1 mM in 1×PBS).
Where [3] appears, read: CPP tagged peptides overview, SD1/2 binding affinity, mean ± SEM, n ≥ 3, read-out: Ki.
[4] abbreviates: Table 1, affinity maturation, mean ± SEM, n ≥ 3, read-out: Ki.
The mark [5] stands for this setting: Table 14, CPPs tagged peptides, read-out: Ki (nM) mean ± SEM.

SMILES strings stand for the structures. Like-named read-outs stand apart in the source and are kept apart here. Non-standard residues stand in square brackets, D forms with d. Residues, ends and D or L forms follow the SMILES beside them. 2Nal = N[C@@H](Cc1ccc2ccccc2c1)C(=O)O

For `CC(=O)N[C@@H](CCC(=O)O)C(=O)N[C@@H](CC(=O)O)C(=O)N[C@@H](CC(=O)O)C(=O)N[C@@H](CO)C(=O)N[C@@H](CC(=O)O)C(=O)N[C@H](C(=O)N[C@@H](Cc1c[nH]c2ccccc12)C(=O)N[C@@H](Cc1c[nH]c2ccccc12)C(=O)N[C@@H](Cc1ccc(O)cc1)C(=O)NCC(=O)N[C@@H](C)C(=O)N[C@@H](CC(=O)O)C(=O)N[C@H](C(=O)N[C@@H](CC(=O)O)C(N)=O)[C@@H](C)O)C(C)C` (Ac-EDDSDVWWYGADTD-NH2), the Ki on SD1/2 was 167 nM; in data set [1] (Table 10, deep mutational scanning validation variants of APPWT, read-out: Ki (nM) mean ± SEM) it was 108 ± 1 nM.
Turning to `CC[C@H](C)[C@H](NC(=O)[C@H](C)NC(=O)[C@H](Cc1c[nH]c2ccccc12)NC(=O)[C@@H]1CCCN1C(C)=O)C(=O)N[C@H](C(=O)N[C@@H](Cc1c[nH]c2ccccc12)C(=O)NCC(=O)N1CCC[C@H]1C(=O)N[C@H](C(=O)N[C@H](C(=O)N[C@@H](CO)C(=O)N[C@@H](CCCNC(=N)N)C(=O)N[C@@H](CCC(=O)O)C(=O)N[C@@H](CC(=O)O)C(N)=O)C(C)C)[C@@H](C)O)C(C)C` [PIANPWT, Ac-PWAIVWGPTVSRED-NH2] (Ac-PWAIVWGPTVSRED-NH2), the Ki in data set [1] (purified peptides, read-out: Ki) was 476 ± 19 nM. In data set [2], this compound gave a half-life of 960 min.
Turning to `CC[C@H](C)[C@H](NC(=O)[C@H](Cc1c[nH]c2ccccc12)NC(=O)[C@H](CC(=O)O)NC(=O)[C@H](CC(=O)O)NC(=O)[C@H](CC(=O)O)NC(=O)[C@H](CCC(=O)O)NC(C)=O)C(=O)N[C@@H](CC(=O)O)C(=O)N[C@@H](Cc1c[nH]c2ccccc12)C(=O)NCC(=O)N1CCC[C@H]1C(=O)N[C@H](C(=O)N[C@@H](CO)C(=O)N[C@@H](CC(=O)O)C(=O)N[C@@H](CC(=O)O)C(=O)N[C@@H](CC(=O)O)C(N)=O)[C@@H](C)O` [Peptide 17] (Ac-EDDDWIDWGPTSDDD-NH2), the Ki in data set [1] (setting [3]) is 4 ± 0.3 nM; in data set [1] (setting [4]), 4 ± 0.3 nM; in data set [1] (Table 13, peptides for affinity maturation, read-out: Ki (nM) mean ± SEM), 4 ± 0.3 nM. Besides, in data set [2], the half-life was greater than 2880 min.
As for `CC[C@H](C)[C@H](NC(=O)[C@H](Cc1ccc2ccccc2c1)NC(=O)[C@H](CC(=O)O)NC(=O)[C@H](CC(=O)O)NC(=O)[C@H](CC(=O)O)NC(=O)[C@H](CCC(=O)O)NC(C)=O)C(=O)N[C@@H](CC(=O)O)C(=O)N[C@@H](Cc1c[nH]c2ccccc12)C(=O)NCC(=O)N1CCC[C@H]1C(=O)N[C@H](C(=O)N[C@@H](CO)C(=O)N[C@@H](CC(=O)O)C(=O)N[C@@H](CC(=O)O)C(=O)N[C@@H](CC(=O)O)C(N)=O)[C@@H](C)O` [Peptide 21] (Ac-EDDD[2Nal]IDWGPTSDDD-NH2), the Ki is 5.3 ± 0.2 nM in data set [1] (setting [3]); 5.3 ± 0.2 nM in data set [1] (setting [4]); 5.3 ± 0.2 nM in data set [1] (Table 16, ncAAs incorporated peptides, read-out: Ki (nM) mean ± SEM). Moreover, in data set [2], the half-life is greater than 2880 min.
For the compound `CC[C@H](C)[C@H](NC(=O)[C@H](Cc1c[nH]c2ccccc12)NC(=O)[C@H](CC(=O)O)NC(=O)[C@H](CC(=O)O)NC(=O)[C@H](CC(=O)O)NC(=O)[C@H](CCC(=O)O)NC(=O)[C@H](CCCNC(=N)N)NC(=O)[C@H](CCCNC(=N)N)NC(=O)[C@H](CCCNC(=N)N)NC(C)=O)C(=O)N[C@@H](CC(=O)O)C(=O)N[C@@H](Cc1c[nH]c2ccccc12)C(=O)N[C@@H](Cc1ccc(O)cc1)C(=O)N[C@@H](CC(=O)O)C(=O)N[C@@H](CO)C(=O)N[C@@H](CC(=O)O)C(=O)N[C@@H](CC(=O)O)C(=O)N[C@@H](CC(=O)O)C(N)=O` [Peptide R3-16] (Ac-RRREDDDWIDWYDSDDD-NH2), the Ki in data set [1] (setting [5]) is 6.4 ± 0.1 nM. This compound gave a share remaining at 48 h, 100 µM in data set [2] of roughly 80%.
On the same counts, the results for `CC[C@H](C)[C@H](NC(=O)[C@H](Cc1c[nH]c2ccccc12)NC(=O)[C@H](CC(=O)O)NC(=O)[C@H](CC(=O)O)NC(=O)[C@H](CC(=O)O)NC(=O)[C@H](CCC(=O)O)NC(=O)[C@H](CCCNC(=N)N)NC(=O)[C@H](CCCNC(=N)N)NC(=O)[C@H](CCCNC(=N)N)NC(C)=O)C(=O)N[C@@H](CC(=O)O)C(=O)N[C@@H](Cc1c[nH]c2ccccc12)C(=O)NCC(=O)N1CCC[C@H]1C(=O)N[C@H](C(=O)N[C@@H](CO)C(=O)N[C@@H](CC(=O)O)C(=O)N[C@@H](CC(=O)O)C(=O)N[C@@H](CC(=O)O)C(N)=O)[C@@H](C)O` [Peptide R3-17] (Ac-RRREDDDWIDWGPTSDDD-NH2) are 9 ± 0.2 nM and roughly 80%.
As for `CC[C@H](C)[C@H](NC(=O)[C@H](Cc1ccc2ccccc2c1)NC(=O)[C@H](CC(=O)O)NC(=O)[C@H](CC(=O)O)NC(=O)[C@H](CC(=O)O)NC(=O)[C@H](CCC(=O)O)NC(=O)[C@H](CCCNC(=N)N)NC(=O)[C@H](CCCNC(=N)N)NC(=O)[C@H](CCCNC(=N)N)NC(=O)[C@H](CCCNC(=N)N)NC(C)=O)C(=O)N[C@@H](CC(=O)O)C(=O)N[C@@H](Cc1c[nH]c2ccccc12)C(=O)N[C@@H](Cc1ccc(O)cc1)C(=O)N[C@@H](CC(=O)O)C(=O)N[C@@H](CO)C(=O)N[C@@H](CC(=O)O)C(=O)N[C@@H](CC(=O)O)C(=O)N[C@@H](CC(=O)O)C(N)=O` [Peptide R4-20] (Ac-RRRREDDD[2Nal]IDWYDSDDD-NH2), in data set [1] (4R tagged peptides), the “fold higher affinity than 4R-16” value is “about 2 fold”. Further, the Ki in data set [1] (setting [3]) is 12 ± 1 nM. Further, the Ki in data set [1] (setting [5]) is 15 ± 1 nM. Moreover, in data set [2], the “T1/2” value is on record as greater than 48 h and the half-life was greater than 2880 min.
Take `CC[C@H](C)[C@H](NC(=O)[C@H](Cc1ccc2ccccc2c1)NC(=O)[C@H](CC(=O)O)NC(=O)[C@H](CC(=O)O)NC(=O)[C@H](CC(=O)O)NC(=O)[C@H](CCC(=O)O)NC(=O)[C@H](CCCNC(=N)N)NC(=O)[C@H](CCCNC(=N)N)NC(=O)[C@H](CCCNC(=N)N)NC(=O)[C@H](CCCNC(=N)N)NC(C)=O)C(=O)N[C@@H](CC(=O)O)C(=O)N[C@@H](Cc1c[nH]c2ccccc12)C(=O)NCC(=O)N1CCC[C@H]1C(=O)N[C@H](C(=O)N[C@@H](CO)C(=O)N[C@@H](CC(=O)O)C(=O)N[C@@H](CC(=O)O)C(=O)N[C@@H](CC(=O)O)C(N)=O)[C@@H](C)O` [Peptide R4-21] (Ac-RRRREDDD[2Nal]IDWGPTSDDD-NH2): the Ki in data set [1] (setting [3]) is 13 ± 1 nM. The Ki in data set [1] (setting [5]) was 13 ± 1 nM. Besides, in data set [2], the “T1/2” value is listed as greater than 48 h and the half-life is greater than 2880 min.
With `CC[C@H](C)[C@H](NC(=O)[C@H](Cc1c[nH]c2ccccc12)NC(=O)[C@H](CC(=O)O)NC(=O)[C@H](CC(=O)O)NC(=O)[C@H](CC(=O)O)NC(=O)[C@H](CCC(=O)O)NC(=O)[C@H](CCCNC(=N)N)NC(=O)[C@H](CCCNC(=N)N)NC(=O)[C@H](CCCNC(=N)N)NC(=O)[C@H](CCCNC(=N)N)NC(=O)[C@H](CCCNC(=N)N)NC(=O)[C@H](CCCNC(=N)N)NC(=O)[C@H](CCCNC(=N)N)NC(=O)[C@H](CCCNC(=N)N)NC(C)=O)C(=O)N[C@@H](CC(=O)O)C(=O)N[C@@H](Cc1c[nH]c2ccccc12)C(=O)N[C@@H](Cc1ccc(O)cc1)C(=O)N[C@@H](CC(=O)O)C(=O)N[C@@H](CO)C(=O)N[C@@H](CC(=O)O)C(=O)N[C@@H](CC(=O)O)C(=O)N[C@@H](CC(=O)O)C(N)=O` [Peptide R8-16] (Ac-RRRRRRRREDDDWIDWYDSDDD-NH2), the Ki in data set [1] (setting [3]) was 107 ± 1 nM. Also, the Ki in data set [1] (setting [5]) was 107 ± 2 nM. For the same compound, in data set [2], the fraction remaining at 48 h, 100 µM was roughly 50% and the half-life was greater than 2880 min.
On the same counts, the results for `CC[C@H](C)[C@H](NC(=O)[C@H](Cc1c[nH]c2ccccc12)NC(=O)[C@H](CC(=O)O)NC(=O)[C@H](CC(=O)O)NC(=O)[C@H](CC(=O)O)NC(=O)[C@H](CCC(=O)O)NC(=O)[C@H](CCCNC(=N)N)NC(=O)[C@H](CCCNC(=N)N)NC(=O)[C@H](CCCNC(=N)N)NC(=O)[C@H](CCCNC(=N)N)NC(=O)[C@H](CCCNC(=N)N)NC(=O)[C@H](CCCNC(=N)N)NC(=O)[C@H](CCCNC(=N)N)NC(=O)[C@H](CCCNC(=N)N)NC(C)=O)C(=O)N[C@@H](CC(=O)O)C(=O)N[C@@H](Cc1c[nH]c2ccccc12)C(=O)NCC(=O)N1CCC[C@H]1C(=O)N[C@H](C(=O)N[C@@H](CO)C(=O)N[C@@H](CC(=O)O)C(=O)N[C@@H](CC(=O)O)C(=O)N[C@@H](CC(=O)O)C(N)=O)[C@@H](C)O` [Peptide R8-17] (Ac-RRRRRRRREDDDWIDWGPTSDDD-NH2) are 58 ± 3 nM, 58.1 ± 3 nM, roughly 50% and greater than 2880 min.
